Experimental data as given in ChEMBL document CHEMBL3351875, “Synthesis of Deuterated Benzopyran Derivatives as Selective COX-2 Inhibitors with Improved Pharmacokinetic Properties” (ACS Med Chem Lett, 2014).
Values belong to the compound of their own block, whether it stands above or below them.

Assays:
[1] = Volume of distribution in Sprague-Dawley rat at 2.5 mg/kg, iv measured during 1 to 24 hrs by LC-MS method; assay type: ADME, organism-based; design: dose 2.5 mg/kg, route intravenous; conditions: in vivo
Rattus norvegicus [2] = assay: Half life in Sprague-Dawley rat at 2.5 mg/kg, iv measured during 1 to 24 hrs by LC-MS method; assay type: ADME, organism-based; design: dose 2.5 mg/kg, route intravenous; conditions: in vivo
Rattus norvegicus [3] = assay: AUC (0 to infinity) in Sprague-Dawley rat at 2.5 mg/kg, iv measured during 1 to 24 hrs by LC-MS method; assay type: ADME, organism-based, Plasma; design: time infinity, dose 2.5 mg/kg, route intravenous; conditions: in vivo
[4] = Apparent oral clearance in Sprague-Dawley rat at 2.5 mg/kg, iv measured during 1 to 24 hrs by LC-MS method; assay type: ADME, organism-based; design: dose 2.5 mg/kg, route oral; conditions: in vivo
Rattus norvegicus [5] = assay: Antiinflammatory activity in orally dosed Sprague-Dawley rat model of carrageenan-induced air pouch inflammation assessed as reduction in PGE2 level by ELISA method; assay type: functional, organism-based
Rattus norvegicus [6] = assay: Antiinflammatory activity in orally dosed Sprague-Dawley rat model of carrageenan-induced foot paw edema assessed as reduction in edema by plethysmometry; assay type: functional, organism-based
Rattus norvegicus [7] = assay: Antinociceptive activity in orally dosed Sprague-Dawley rat model of carrageenan-induced foot paw hyperalgesia assessed as paw withdrawal latency; assay type: functional, organism-based
Rattus norvegicus [8] = assay: Antiarthritic activity in Lewis rat model of adjuvant-induced arthritis administrated by oral gavage once daily; assay type: functional; conditions: tested as the 2H-labelled form
[9] = molecular target: Prostaglandin G/H synthase 1 (Homo sapiens, UniProt P23219); assay: Inhibition of human recombinant COX1 pre-incubated for 15 mins before fluorometric substrate addition by fluorescence based assay
[10] = molecular target: T1, Prostaglandin G/H synthase 2 (Homo sapiens, UniProt P35354); assay: Inhibition of human recombinant COX2 pre-incubated for 15 mins before fluorometric substrate addition by fluorescence based assay
T1 sequence (P35354 whole entry): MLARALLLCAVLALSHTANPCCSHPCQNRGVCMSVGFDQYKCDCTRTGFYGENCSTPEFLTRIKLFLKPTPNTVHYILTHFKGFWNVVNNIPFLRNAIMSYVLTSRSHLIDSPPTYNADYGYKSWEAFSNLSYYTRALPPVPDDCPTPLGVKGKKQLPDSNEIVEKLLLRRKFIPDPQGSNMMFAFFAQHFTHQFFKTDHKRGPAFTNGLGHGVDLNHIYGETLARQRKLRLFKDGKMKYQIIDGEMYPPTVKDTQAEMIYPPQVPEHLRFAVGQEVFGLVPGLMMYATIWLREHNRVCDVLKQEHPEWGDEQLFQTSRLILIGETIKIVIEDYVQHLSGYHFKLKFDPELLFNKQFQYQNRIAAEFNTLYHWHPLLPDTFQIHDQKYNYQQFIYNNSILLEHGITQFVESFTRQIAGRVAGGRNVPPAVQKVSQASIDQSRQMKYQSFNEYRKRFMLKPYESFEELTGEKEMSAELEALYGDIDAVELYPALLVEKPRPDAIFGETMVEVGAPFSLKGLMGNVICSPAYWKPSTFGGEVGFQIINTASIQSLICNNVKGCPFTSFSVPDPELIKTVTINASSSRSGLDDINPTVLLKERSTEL

[11] = Oral bioavailability in Sprague-Dawley rat at 5 mg/kg measured during 1 to 24 hrs by LC-MS method; assay type: ADME, organism-based; conditions: in vivo
Rattus norvegicus [12] = assay: Tmax in Sprague-Dawley rat at 5 mg/kg, po measured during 1 to 24 hrs by LC-MS method; assay type: ADME, organism-based; design: dose 5 mg/kg, route oral; conditions: in vivo
[13] = Cmax in Sprague-Dawley rat at 5 mg/kg, po measured during 1 to 24 hrs by LC-MS method; assay type: ADME, organism-based; design: dose 5 mg/kg, route oral; conditions: in vivo
Rattus norvegicus [14] = assay: Volume of distribution in Sprague-Dawley rat at 5 mg/kg, po measured during 1 to 24 hrs by LC-MS method; assay type: ADME, organism-based; design: dose 5 mg/kg, route oral; conditions: in vivo
Rattus norvegicus [15] = assay: Half life in Sprague-Dawley rat at 5 mg/kg, po measured during 1 to 24 hrs by LC-MS method; assay type: ADME, organism-based; design: dose 5 mg/kg, route oral; conditions: in vivo
Rattus norvegicus [16] = assay: AUC (0 to infinity) in Sprague-Dawley rat at 5 mg/kg, po measured during 1 to 24 hrs by LC-MS method; assay type: ADME, organism-based, Plasma; design: time infinity, dose 5 mg/kg, route oral; conditions: in vivo
[17] = Apparent oral clearance in Sprague-Dawley rat at 5 mg/kg, po measured during 1 to 24 hrs by LC-MS method; assay type: ADME, organism-based; design: dose 5 mg/kg, route oral; conditions: in vivo
[18] = Cmax in Sprague-Dawley rat at 2.5 mg/kg, iv measured during 1 to 24 hrs by LC-MS method; assay type: ADME, organism-based; design: dose 2.5 mg/kg, route intravenous; conditions: in vivo
[19] = Oral bioavailability in Sprague-Dawley rat at 30 mg/kg measured during 1 to 24 hrs by LC-MS method; assay type: ADME, organism-based; conditions: in vivo
[20] = Tmax in Sprague-Dawley rat at 30 mg/kg, po measured during 1 to 24 hrs by LC-MS method; assay type: ADME, organism-based; design: dose 30 mg/kg, route oral; conditions: in vivo
[21] = Cmax in Sprague-Dawley rat at 30 mg/kg, po measured during 1 to 24 hrs by LC-MS method; assay type: ADME, organism-based; design: dose 30 mg/kg, route oral; conditions: in vivo
Rattus norvegicus [22] = assay: Volume of distribution in Sprague-Dawley rat at 30 mg/kg, po measured during 1 to 24 hrs by LC-MS method; assay type: ADME, organism-based; design: dose 30 mg/kg, route oral; conditions: in vivo
[23] = Half life in Sprague-Dawley rat at 30 mg/kg, po measured during 1 to 24 hrs by LC-MS method; assay type: ADME, organism-based; design: dose 30 mg/kg, route oral; conditions: in vivo
[24] = AUC (0 to infinity) in Sprague-Dawley rat at 30 mg/kg, po measured during 1 to 24 hrs by LC-MS method; assay type: ADME, organism-based; design: time infinity, dose 30 mg/kg, route oral; conditions: plasma
[25] = Apparent oral clearance in Sprague-Dawley rat at 30 mg/kg, po measured during 1 to 24 hrs by LC-MS method; assay type: ADME, organism-based; design: dose 30 mg/kg, route oral; conditions: in vivo
[26] = Cmax in Sprague-Dawley rat at 10 mg/kg, iv measured during 1 to 24 hrs by LC-MS method; assay type: ADME, organism-based; design: dose 10 mg/kg, route intravenous; conditions: in vivo
[27] = Volume of distribution in Sprague-Dawley rat at 10 mg/kg, iv measured during 1 to 24 hrs by LC-MS method; assay type: ADME, organism-based; design: dose 10 mg/kg, route intravenous; conditions: in vivo
Rattus norvegicus [28] = assay: Half life in Sprague-Dawley rat at 10 mg/kg, iv measured during 1 to 24 hrs by LC-MS method; assay type: ADME, organism-based; design: dose 10 mg/kg, route intravenous; conditions: in vivo
[29] = AUC (0 to infinity) in Sprague-Dawley rat at 10 mg/kg, iv measured during 1 to 24 hrs by LC-MS method; assay type: ADME, organism-based; design: time infinity, dose 10 mg/kg, route intravenous; conditions: plasma
[30] = Apparent oral clearance in Sprague-Dawley rat at 10 mg/kg, iv measured during 1 to 24 hrs by LC-MS method; assay type: ADME, organism-based; design: dose 10 mg/kg, route oral; conditions: in vivo
Rattus norvegicus [31] = assay: Oral bioavailability in Sprague-Dawley rat at 2.5 mg/kg measured during 1 to 24 hrs by LC-MS method; assay type: ADME, organism-based; conditions: in vivo
Rattus norvegicus [32] = assay: AUC (0 to infinity) in Sprague-Dawley rat at 2.5 mg/kg, po measured during 1 to 24 hrs by LC-MS method; assay type: ADME, organism-based, Plasma; design: dose 2.5 mg/kg, route oral, time infinity; conditions: in vivo
Rattus norvegicus [33] = assay: Apparent oral clearance in Sprague-Dawley rat at 2.5 mg/kg, po measured during 1 to 24 hrs by LC-MS method; assay type: ADME, organism-based; design: dose 2.5 mg/kg, route oral; conditions: in vivo
[34] = Cmax in Sprague-Dawley rat at 1 mg/kg, iv measured during 1 to 24 hrs by LC-MS method; assay type: ADME, organism-based; design: dose 1 mg/kg, route intravenous; conditions: in vivo
[35] = Volume of distribution in Sprague-Dawley rat at 1 mg/kg, iv measured during 1 to 24 hrs by LC-MS method; assay type: ADME, organism-based; design: dose 1 mg/kg, route intravenous; conditions: in vivo
Rattus norvegicus [36] = assay: Half life in Sprague-Dawley rat at 1 mg/kg, iv measured during 1 to 24 hrs by LC-MS method; assay type: ADME, organism-based; design: dose 1 mg/kg, route intravenous; conditions: in vivo
Rattus norvegicus [37] = assay: AUC (0 to infinity) in Sprague-Dawley rat at 1 mg/kg, iv measured during 1 to 24 hrs by LC-MS method; assay type: ADME, organism-based, Plasma; design: time infinity, dose 1 mg/kg, route intravenous; conditions: in vivo
[38] = Apparent oral clearance in Sprague-Dawley rat at 1 mg/kg, iv measured during 1 to 24 hrs by LC-MS method; assay type: ADME, organism-based; design: dose 1 mg/kg, route oral; conditions: in vivo

Chain of Prostaglandin G/H synthase 1 (P23219 whole entry): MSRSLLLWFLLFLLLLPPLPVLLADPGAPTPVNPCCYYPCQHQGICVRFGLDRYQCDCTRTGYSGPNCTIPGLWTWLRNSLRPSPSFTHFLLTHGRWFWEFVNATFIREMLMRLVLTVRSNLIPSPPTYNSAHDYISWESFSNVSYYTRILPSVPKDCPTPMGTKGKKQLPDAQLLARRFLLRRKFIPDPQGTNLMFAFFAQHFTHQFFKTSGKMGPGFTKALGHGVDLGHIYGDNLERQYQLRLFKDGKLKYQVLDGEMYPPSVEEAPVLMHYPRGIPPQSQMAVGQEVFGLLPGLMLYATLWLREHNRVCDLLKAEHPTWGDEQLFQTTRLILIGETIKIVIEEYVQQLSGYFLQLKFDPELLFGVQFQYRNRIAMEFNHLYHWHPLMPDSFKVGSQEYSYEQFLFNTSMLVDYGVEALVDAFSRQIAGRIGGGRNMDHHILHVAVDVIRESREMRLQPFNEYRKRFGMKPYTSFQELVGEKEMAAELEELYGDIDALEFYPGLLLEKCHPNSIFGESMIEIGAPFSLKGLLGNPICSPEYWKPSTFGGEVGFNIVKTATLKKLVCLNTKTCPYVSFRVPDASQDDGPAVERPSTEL

Vd [1]: 0.15 L/kg
t1/2 (Rattus norvegicus [2]): 0.58 h
AUC (Rattus norvegicus [3]): 14.843535 µg·h/mL
CL/F [4]: 2.87 mL/min/kg
EC50 (Rattus norvegicus [5]): 0.47 mg/kg
EC50 (Rattus norvegicus [6]): 3.47 mg/kg
EC50 (Rattus norvegicus [7]): 3.52 mg/kg
IC50 [9]: > 100000 nM
IC50 [10]: 28 nM
bioavailability [11]: 46.3%
Tmax (Rattus norvegicus [12]): 0.438 h
Cmax [13]: 11500 ng/mL
Vd (Rattus norvegicus [14]): 0.65 L/kg
t1/2 (Rattus norvegicus [15]): 1.51 h
AUC (Rattus norvegicus [16]): 17.19028 µg·h/mL
CL/F [17]: 4.97 mL/min/kg
Cmax [18]: 38600 ng/mL
SMILES: Cc1cc(Br)cc2c1OC(C(F)(F)F)C(C(=O)O)=C2 (stereo unspecified)
inhibition (Rattus norvegicus [8]): Dose-dependent effect

bioavailability [19]: 60.2%
Tmax [20]: 1.25 h
Cmax [21]: 33500 ng/mL
Vd (Rattus norvegicus [22]): 0.491 L/kg
half-life [23]: 4.54 h
AUC(0-inf) [24]: 403 µg·h/mL
CL/F [25]: 1.25 mL/min/kg
Cmax [26]: 51600 ng/mL
Vd [27]: 0.39 L/kg
t1/2 (Rattus norvegicus [28]): 5.946 h
AUC(0-inf) [29]: 223 µg·h/mL
CL/F [30]: 0.783 mL/min/kg
SMILES: [2H]C([2H])([2H])C([2H])([2H])c1cc(OC(F)(F)F)cc2c1OC(C(F)(F)F)C(C(=O)O)=C2 (stereo unspecified)

EC50 (Rattus norvegicus [5]): 0.45 mg/kg
EC50 (Rattus norvegicus [6]): 6.48 mg/kg
EC50 (Rattus norvegicus [7]): 3.33 mg/kg
F (Rattus norvegicus [31]): 110.7%
AUC (Rattus norvegicus [32]): 38900 µg/L.hr
CL/F (Rattus norvegicus [33]): 1.1 mL/min/kg
Cmax [34]: 9070 ng/mL
Vd [35]: 0.404 L/kg
t1/2 (Rattus norvegicus [36]): 3.909 h
AUC (Rattus norvegicus [37]): 14.043753 µg·h/mL
CL/F [38]: 1.2 mL/min/kg
SMILES: [2H]C([2H])([2H])c1cc(Cl)cc2c1OC(C(F)(F)F)C(C(=O)O)=C2 (stereo unspecified)
